Columns and labels:
IL6 = experiment: IL-6 Quantification Assay (ELISA), LPS-stimulated RAW 264.7; type: cell-based; set-up: inhibition: dose or concentration left out as unconfirmed; details: Mus musculus, RAW264.7; read-out: IL-6: % inh.
[1] = test system: Smad2/Smad3 phosphorylation; experiment: Phospho-Smad2/3 Inhibition Assay (western blot), Panc-1; type: cell-based, human; details: at 10 μM, Panc-1 pancreatic cancer cell line; starred symbols = activation
In short: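 Western blotting of lysates (15-50 μg protein) read phosphorylation of Smad2 Ser465/467 and Smad3 Ser423/425. Before lysis, Panc-1 cells got 1 h of 10 ng/ml TGF-b1 following 3 h compound exposure at 37° C (10 μM final, or serial dilutions for IC50, 0.3% DMSO) after overnight 0.5% FBS starvation.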

KRas G12D mutant = experiment: Ras GTP Binding Domain Inhibition Assay (Ras Superfamily Assay); details: for KRas G12D mutant + SOS: % inh.: with SOS; for KRas G12D mutant: % inh.: without SOS
In short: (§1)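 His-tagged GTPases immobilised on nickel-coated plates, pre-incubated with compound (20 μM single point, or serial dilution for IC50) 3 h at room temperature, with or without 10-30 μg/mL Sos (residues 556-1049) in the final hour. Bound Cy3- or Cy5-GTP (100 nM, 45 min) measured by fluorescence after washing.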

KRas wild type = experiment: as above; details: for KRas wild type + SOS: % inh.: with SOS; for KRas wild type: % inh.: without SOS
In short: as §1

Rac-1 = biological target: T1, Rac-1 (Homo sapiens, UniProt P63000); experiment: as above; details: read-out: Rac-1: % inh.
T1 construct: made in house
In short: as §1

Question: `COc1ccc(Nc2nc(-c3nccn3C)nn3cc(-c4ccn(C)n4)c(C)c23)nc1` [Compound 224, N-(5-Methoxypyridin-2-yl)-5-methyl-2-(1-methyl-1H-imidazol-2-yl)-6-(1-methyl-1H-pyrazol-3-yl)pyrrolo[2,1-f][1,2,4]triazin-4-amine] was tested. Which inhibition (IL6) did it give?
Answer: 50 to 74%

Question: What about the “% inh of Smad2/3 phosphorylation in Panc-1” value (“% inh … in Panc-1” for short) [1] of the same compound?
Answer: 0 (0 = 0% inhibition)

Question: And the “KRas G12D mutant + SOS: % inh.” value (KRas G12D mutant; at 20 μM)?
Answer: D (D = 76-100% inhibition)

Question: And the “KRas G12D mutant: % inh.” value (KRas G12D mutant; at 20 μM)?
Answer: D (D = 76-100% inhibition)

Question: What about the “KRas wild type + SOS: % inh.” value (KRas wild type; at 20 μM) of the same compound?
Answer: D (D = 76-100% inhibition)

Question: And the “KRas wild type: % inh.” value (KRas wild type; at 20 μM)?
Answer: D (D = 76-100% inhibition)

Question: What about the inhibition at 20 µM (Rac-1) of the same compound?
Answer: 76 to 100%

Question: With `CO[C@H]1CC[C@H](Nc2nc(-c3nccn3C)nn3cc(-c4ccn(C)n4)c(C(=O)NCC(F)(F)F)c23)C1` (racemic) [Compound 181, 4-(((1S,3S)-3-Methoxycyclopentyl)amino)-2-(1-methyl-1H-imidazol-2-yl)-6-(1-methyl-1H-pyrazol-3-yl)-N-(2,2,2-trifluoroethyl)pyrrolo[2,1-f][1,2,4]triazine-5-carboxamide] as the compound, how does the inhibition (IL6) read?
Answer: 50 to 74%

Question: And the “% inh … in Panc-1” value [1]?
Answer: A (A = 1-25% inhibition)

Question: And the “KRas G12D mutant + SOS: % inh.” value (KRas G12D mutant; 20 μM compound)?
Answer: 0 (0 = 0% inhibition)

Question: What about the “KRas G12D mutant: % inh.” value (KRas G12D mutant; 20 μM compound) of the same compound?
Answer: A (A = 1-25% inhibition)

Question: What about the “KRas wild type + SOS: % inh.” value (KRas wild type; 20 μM compound) of the same compound?
Answer: A (A = 1-25% inhibition)

Question: What about the “KRas wild type: % inh.” value (KRas wild type; 20 μM compound) of the same compound?
Answer: A (A = 1-25% inhibition)

Question: What about the inhibition at 20 µM (Rac-1) of the same compound?
Answer: 1 to 25%

Question: How did the inhibition (IL6) turn out when `COCCNc1nc(-c2nccn2C)nn2cc(-c3cccc(OC)c3Cl)c(C)c12` [Compound 16, 6-(2-Chloro-3-methoxyphenyl)-N-(2-methoxyethyl)-5-methyl-2-(1-methyl-1H-imidazol-2-yl)pyrrolo[2,1-f][1,2,4]triazin-4-amine] was run?
Answer: 50 to 74%

Question: What about the “% inh … in Panc-1” value [1] of the same compound?
Answer: 0 (0 = 0% inhibition)

Question: And the “KRas G12D mutant + SOS: % inh.” value (KRas G12D mutant; 20 μM compound)?
Answer: 0 (0 = 0% inhibition)

Question: What about the “KRas G12D mutant: % inh.” value (KRas G12D mutant; 20 μM compound) of the same compound?
Answer: A (A = 1-25% inhibition)

Question: What about the “KRas wild type + SOS: % inh.” value (KRas wild type; 20 μM compound) of the same compound?
Answer: A (A = 1-25% inhibition)

Question: And the “KRas wild type: % inh.” value (KRas wild type; 20 μM compound)?
Answer: 0 (0 = 0% inhibition)

Question: And the inhibition at 20 µM (Rac-1)?
Answer: 0%

Question: `CO[C@@H]1C[C@H]1Nc1nc(-c2nccn2C)nn2cc(-c3ccncc3)c(-c3ccccc3)c12` (racemic) [Compound 197, rac N-((1R,2R)-2-methoxycyclopropyl)-2-(1-methyl-1H-imidazol-2-yl)-5-phenyl-6-(pyridin-4-yl)pyrrolo[2,1-f][1,2,4]triazin-4-amine] was tested. Which inhibition (IL6) did it give?
Answer: 50 to 74%

Question: And the “% inh … in Panc-1” value [1]?
Answer: C (C = 46-75% inhibition)

Question: What about the “KRas G12D mutant + SOS: % inh.” value (KRas G12D mutant; at 20 μM) of the same compound?
Answer: A (A = 1-25% inhibition)

Question: And the “KRas G12D mutant: % inh.” value (KRas G12D mutant; at 20 μM)?
Answer: A (A = 1-25% inhibition)

Question: What about the “KRas wild type + SOS: % inh.” value (KRas wild type; at 20 μM) of the same compound?
Answer: A (A = 1-25% inhibition)

Question: What about the “KRas wild type: % inh.” value (KRas wild type; at 20 μM) of the same compound?
Answer: 0 (0 = 0% inhibition)

Question: What about the inhibition at 20 µM (Rac-1) of the same compound?
Answer: 1 to 25%

Question: For `CO[C@H]1C[C@H](Nc2nc(-c3nccn3C)nn3cc(-c4cccc(OCCN)c4)c(-c4ccccc4)c23)C1` [Compound 205, 6-(3-(2-Aminoethoxy)phenyl)-N-((1r,3r)-3-methoxycyclobutyl)-2-(1-methyl-1H-imidazol-2-yl)-5-phenylpyrrolo[2,1-f][1,2,4]triazin-4-amine], which “% inh … in Panc-1” value [1] is on record?
Answer: D (D = 76-100% inhibition)

Question: What about the “KRas G12D mutant + SOS: % inh.” value (KRas G12D mutant; at 20 μM) of the same compound?
Answer: A (A = 1-25% inhibition)

Question: What about the “KRas G12D mutant: % inh.” value (KRas G12D mutant; at 20 μM) of the same compound?
Answer: A (A = 1-25% inhibition)

Question: And the “KRas wild type + SOS: % inh.” value (KRas wild type; at 20 μM)?
Answer: A (A = 1-25% inhibition)

Question: And the “KRas wild type: % inh.” value (KRas wild type; at 20 μM)?
Answer: A (A = 1-25% inhibition)

Question: And the inhibition at 20 µM (Rac-1)?
Answer: 1 to 25%
